Consider one compound from patent US20230137092A1, “Composition and Method for the Treatment and Prevention of Cardiac, Pulmonary, Dermal, and Renal Fibrosis” (EMERALD HEALTH PHARMACEUTICALS INC., priority 2020, published 2023).

Data set [1] concerns Ang II-induced cardiac fibrosis. As to the kind of experiment: Ang II therapeutic model: perivascular myocardial collagen deposition. To be noted: Ang II 500 ng kg^- min^- 28 days, 20 mg/kg oral during last 14 days, ##p<0.01 versus Ang II group. The class given is in vivo, mouse. The protocol:
(§1) For the therapeutic model, infusion of Ang II for four weeks and the compound of Formula (VIII) (20 mg/kg) was administrated after two weeks of pump implantation. Subcutaneous infusion of Ang II using ALZET osmotic minipumps was used to study the preventive effects of the compound ALZET® osmotic minipumps (Model #2004, Charles Rives, Barcelona, Spain) delivering of Ang II (500 ng kg^−1 min^−1) (Sigma-Aldrich, Madrid, Spain) for four weeks. Compound treatment was daily administered in parallel, two weeks after the implantation of the subcutaneous pump, beneath the midscapular loose skin and consisted of daily oral gavage of compound of Formula (VIII) (20 mg/kg) or vehicle (Corn Oil/Maisine CC, 1/1). Mice were acclimated to manipulators for a week previously to the experiments in order to reduce stress and allow the detection of subtle changes in behavior by researchers. […] Neither piloerection nor hunched appearances were appreciated during the experimental procedures. Mice were sacrificed by cervical dislocation and the heart, aorta, kidney, and lung were removed and processed for histological examination or were frozen for further analysis.

Another data set concerns E2F pathway. Briefly: RNA-Seq of myocardial tissue with GSEA of MSigDb hallmarks, Ang II preventive model. The data set is classed as in vivo, mouse. As to conditions: cardiac RNA; Ang II-challenged mice; n=3 each group. As for the experimental part: RNA seq analysis from RNA extracted of myocardial tissue was performed. Transcriptome libraries were constructed with TruSeq Illumina TruSeq mRNA Sample Prep v2 kit (#RS-122-2001). In brief, 300 ng of RNA from each sample was used to construct a cDNA library, followed by sequencing on the Illumina Hiseq 2500 with single end 50 bp reads and ˜30 million reads per sample.
RNA-Seq reads were pre-processed with fastp (v0.20.0) and aligned to mouse genome assembly grcm38 using HISAT2 (v2.1.0). Then, counts per gene were obtained with featureCounts (v1.6.1) and normalization and differential expression analyses were carried out using edgeR (v3.26.8), excluding those genes with less than 15 counts across all samples. Finally, the functional analysis was performed using the functional categories defined by MSigDb hallmarks for Mus musculus (V7.0) and the clusterProfiler package (v3.12.0).
The results confirmed the hallmarks that were enriched in the Ang II group versus control group were pathways related to fibrotic response; this was the case of IFN-α and IFN-γ response, TNF-α signaling via NF-KB, Epithelial Mesenchymal Transition and inflammatory responses, including IL6 JAK STAT Signaling (FIG. 6). The results were obtained after carrying out the functional analysis of the transcriptomic signatures in heart tissue. […]

Data set [2] can be described thus: Weight and behaviour observation during the preventive Ang II protocol. The class given is in vivo, mouse. As to conditions: 20 mg/kg daily oral gavage. The protocol:
(§2) Ang II causes myocardial fibrosis in a short period of time (Sopel M et al., 2011, Lab. Invest., 91:565-578) characterized by collagen accumulation and after 14 days of Ang II infusion (Sigusch H H et al., 1996, Cardiovascular Research, 31:546-554). […] Subcutaneous infusion of Ang II using ALZET® osmotic pumps was used to study compound preventive effects. ALZET® osmotic minipumps (Model #2004, Charles Rives, Barcelona, Spain) delivering of Ang II (1.0 mg kg^− min^−) (Sigma-Aldrich, Madrid, Spain) for two weeks. Compound treatment was daily administered in parallel, one day before of the implantation of the subcutaneous pump, beneath the mid scapular loose skin and consisted of daily oral gavage of compound (20 mg/kg) or vehicle (Corn Oil/Maisine CC, 1/1). Mice were acclimated to manipulators for a week previously to the experiments in order to reduce stress and allow the detection of subtle changes in behavior by researchers. […] Neither piloerection nor hunched appearances were appreciated during the experimental procedures. Mice were sacrificed by cervical dislocation and the heart, aorta, skin, and kidney were removed and processed for histological examination or were frozen for further analysis.

The test system of another data set is NFAT. Briefly: Gal4-NFAT / Gal4-Luc reporter assay in hICF. The class given is cell-based, human. To be noted: hICF transfected with Gal4-Luc and Gal4-NFAT, stimulated 6 hours. The protocol: hICF cells were transiently transfected for 24 hours with the Gal4-Luc reporter plasmid (which includes five Gal4 DNA binding sites fused to the luciferase gene) and the Gal4-NFAT1-415plasmid for 24 hours using Roti-Fect (Carl Roth GmbH & Co. KG, Karlsruhe, Germany). Then cells were stimulated for 6 hours and luciferase activity in the cell lysates was measured. The specific transactivation expressed as a percentage of activation relative to control. Compound of Formula (VIII) inhibited Ang II-induced NFAT activation (FIG. 16B).

The test system of data set [3] is Ang II-induced aortic fibrosis. As to the kind of experiment: Ang II preventive model: aorta sections, picrosirius red. The class given is in vivo, mouse. As to conditions: Ang II two weeks, oral treatment. The protocol:
as §2, with “Mice were sacrificed by cervical dislocation and the heart, aorta, skin, and kidney were removed and processed for histological examination or were frozen for further analysis.” left out
Mice treated with Ang II presented an increase in the thickness of aortic media layer by collagen accumulation. […] Three-four random fields of each heart were photographed by standard brightfield microscopy and digitalized using a Leica DFC420c camera and analyzed using Fiji software (rsb.info.nih.gov/ij/).

Data set [4] is described as follows: Weight and behaviour observation during the therapeutic Ang II protocol. The class given is in vivo, mouse. As to conditions: 20 mg/kg daily oral gavage. The protocol: as §1

Take `C=C(C)C1CCC(C)=C[C@H]1C1=C(O)C(=O)C(CCCCC)=C(NCc2ccccc2)C1=O` (some centres unmarked) [Formula (VIII)]: in data set [1], the “Ang II perivascular myocardial collagen deposition” value is “reduced”. In addition, the “expression of a set of genes of E2F pathway (RNA-Seq)” value in the data set on E2F pathway was “clearly downregulated”. Further, the behavioral changes entry in data set [2] and in data set [4] was “No behavioral changes” each time. Moreover, the mice weight entry in data set [2] (between experimental groups) and in data set [4] (between experimental groups) was “no significant changes” throughout. In addition, in the data set on NFAT, the “Ang II-induced NFAT activation (luciferase)” value is reported as “inhibited”. In data set [3], the “thickness of aortic media layer by collagen accumulation” value is “significantly alleviated”.
